Measured values from US8372850B2, “Aminopyridines and aminopyrimidines useful as inhibitors of protein kinases” (Vertex Pharmaceuticals Incorporated, priority 2006, dated 2013).

test system: rat brains after transient middle cerebral artery occlusion (MCAO); test: not given; settings: cited from earlier work

Compound	infarct size
IGF-1: IGF-1 (insulin growth factor-1), a known GSK-3 inhibitor	reduced infarct size

target: T1, GSK-3β(AA 1-420) (Homo sapiens, UniProt P49841); test: GSK-3 Inhibition Assay (standard coupled enzyme system); assay type: biochemical; settings: 20 μM ATP, 300 μM peptide, 20 nM GSK-3β, 30° C.
T1 construct: GSK-3β(AA 1-420)
T1 sequence (P49841 whole entry, species assumed, the tested form may be a part): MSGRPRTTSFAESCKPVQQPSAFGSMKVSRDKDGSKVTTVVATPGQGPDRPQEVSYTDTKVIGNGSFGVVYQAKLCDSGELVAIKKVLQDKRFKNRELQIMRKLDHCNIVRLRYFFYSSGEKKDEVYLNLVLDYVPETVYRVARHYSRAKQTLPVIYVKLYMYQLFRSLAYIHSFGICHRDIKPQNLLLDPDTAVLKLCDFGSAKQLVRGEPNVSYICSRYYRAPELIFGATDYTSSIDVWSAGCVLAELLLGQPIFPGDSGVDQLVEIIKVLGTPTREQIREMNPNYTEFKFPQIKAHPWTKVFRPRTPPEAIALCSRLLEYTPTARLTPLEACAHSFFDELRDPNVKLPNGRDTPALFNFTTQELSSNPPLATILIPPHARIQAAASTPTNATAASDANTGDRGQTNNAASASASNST
Method: Compounds of the present invention were screened for their ability to inhibit GSK-3β(AA 1-420) activity using a standard coupled enzyme system (Fox et al., Protein Sci. 1998, 7, 2249). Reactions were carried out in a solution containing 100 mM HEPES (pH 7.5), 10 mM MgCl2, 25 mM NaCl, 300 μM NADH, 1 mM DTT and 1.5% DMSO. Final substrate concentrations in the assay were 20 μM ATP (Sigma Chemicals, St Louis, Mo.) and 300 μM peptide (American Peptide, Sunnyvale, Calif.). Reactions were carried out at 30° C. and 20 nM GSK-3β. Final concentrations of the components of the coupled enzyme system were 2.5 mM phosphoenolpyruvate, 300 μM NADH, 30 μg/ml pyruvate kinase and 10 μg/ml lactate dehydrogenase.
An assay stock buffer solution was prepared containing all of the reagents listed above with the exception of ATP and the test compound of the present invention. The assay stock buffer solution (175 μl) was incubated in a 96 well plate with 5 μl of the test compound of the present invention at final concentrations spanning 0.002 μM to 30 μM at 30° C. for 10 min. Typically, a 12-point titration was conducted by preparing serial dilutions (from 10 mM compound stocks) with DMSO of the test compounds of the present invention in daughter plates. The reaction was initiated by the addition of 20 μl of ATP (final concentration 20 μM). Rates of reaction were obtained using a Molecular Devices Spectramax plate reader (Sunnyvale, Calif.) over 10 min at 30° C. The Ki values were determined from the rate data as a function of inhibitor concentration.

Compound	Ki
Cc1cc(Nc2cc(N3CC(O)(C(C)(C)C)C3)nc(-c3ccccc3Cl)n2)n[nH]1 [Compound I-8]	1000 to 5000 nM
Cc1cc(Nc2cc(N3CC(F)(F)C3)nc(-c3ccccc3Cl)n2)n[nH]1 [Compound I-4]	50 to 500 nM
Cc1cc(Nc2cc(N3CCC3)nc(-c3ccccc3Cl)n2)n[nH]1 [Compound I-1, 6-(Azetidin-1-yl)-2-(2-chlorophenyl)-N-(5-methyl-1H-pyrazol-3-yl)pyrimidin-4-amine]	50 to 500 nM

Further lines, results first:

Ki	Compound
50 to 500 nM	Cc1cc(Nc2cc(C3CNC3)nc(-c3ccccc3Cl)n2)n[nH]1 [Compound I-12, 6-(Azetidin-3-yl)-2-(2-chlorophenyl)-N-(5-methyl-1H-pyrazol-3-yl)pyrimidin-4-amine]
50 to 500 nM	OC1(C2CC2)CN(c2cc(Nc3n[nH]c4ccc(F)cc34)nc(-c3ccccc3Cl)n2)C1 [Compound I-10]
< 50 nM	Fc1cnc2[nH]nc(Nc3cc(N4CC(F)(C5CC5)C4)nc(-c4ccccc4Cl)n3)c2c1 [Compound I-9]
50 to 500 nM	Cc1cc(Nc2cc(N3CC(F)(C4CC4)C3)nc(-c3ccccc3Cl)n2)n[nH]1 [Compound I-5]
< 50 nM	OC1(C2CC2)CN(c2cc(Nc3n[nH]c4ncc(F)cc34)nc(-c3ccccc3Cl)n2)C1 [Compound I-11]
< 50 nM	Cc1cnc(Nc2cc(N3CCC3)nc(-c3ccccc3Cl)n2)s1 [Compound I-2]
< 50 nM	Fc1cnc2[nH]nc(Nc3cc(N4CCC4)nc(-c4ccccc4Cl)n3)c2c1 [Compound I-3]

same assay, conditions: range printed with mixed units (500 nM to 1 uM); 20 μM ATP, 30° C.

Ki	Compound
500 to 1000 nM	Cc1cc(Nc2cc(N3CC(O)(C4CC4)C3)nc(-c3ccccc3Cl)n2)n[nH]1 [Compound I-6]
500 to 1000 nM	Cc1cc(Nc2cc(N3CC(C)(O)C3)nc(-c3ccccc3Cl)n2)n[nH]1 [Compound I-7]
